Experimental data as given in US11083696B2, “Dispersion anaesthetic device” (UNIVERSITY COLLEGE CARDIFF CONSULTANTS LIMITED, priority 2011, dated 2021).

How the values were obtained:
[1] = Gelation of liquid anaesthetics by gelators (heat-cool cycles, inversion); assay type: physicochemical
Description: […] The solubility of the gelator at room temperature was observed by visual inspection, and samples subjected to a series of heat-cool cycles (hot ˜60° C., cold ˜5° C.) until solubility of the gelator was complete (or ceased to improve) and a clear gel was formed on cooling. A final heating cycle was carried out and the samples allowed to cool slowly to room temperature (cooling rate uncontrolled). […] Further inspection was carried out after 24 hours, and no difference in results was observed. On storage, sealed samples remain gelled for at least 12 months.
A series of gelators were investigated with chain lengths […] corresponding to gelators G3-G8.

[2] = test system: reaction to a standard surgical stimulus (skin incision); details: average adult male at age 40 years; 1 atmosphere; cited from earlier work
[3] = Release into carrier gas, testing chamber 1 (60 ml glass jar, anaesthetic monitor); assay type: physicochemical; details: for Sevo % @ 30 s / time to 0% Sevo/s: HPFP only, No N2 flow
Description: Specifically, a 60 ml glass jar fitted with septum, N2 inlet and 1 ml syringe (open to air). Typically tests used a 3 ml sample or equivalent with respect to anaesthetic content. Headspace concentrations were sampled from gas flow out (no recirculation) and measured with a standard anaesthetic monitor using a balloon to provide a nitrogen atmosphere or with or 2 L min^−1 N2 passed over or bubbled through sample;
The formulations described in Tables 1-4 were tested using testing chamber 1, the experimental set-up for which is described in FIG. 1a, by addition of an appropriate quantity of formulation to a 60 ml glass jar fitted with septum, N2 inlet and (needle free) 1 ml syringe (open to air) via a plastic tube from within which the outflow gas was continuously sampled and monitored for anaesthetic concentration. Typically a 3 ml sample was used, or an equivalent amount with respect to anaesthetic content. A balloon was used to provide a nitrogen atmosphere with no flow-through, or a continuous flow of nitrogen as a carrier gas was passed over or bubbled through the sample at a controlled flow-rate. Headspace fluorocarbon concentrations were sampled from gas outflow (no recirculation) and measured using a standard anaesthetic monitor (Capnomac Ultima, Datex Instrumentarium Inc., Heslinki, Finland), monitoring on either sevoflurane or isoflurane settings, depending on the anaesthetic in the formulation.

[4] = 1 wt % gelator after 2x heat-cool cycling
[5] = 1st value column (amount equivalent to J1)
[6] = 3rd value column (amount equivalent to J5)

Structure (SMILES): CC(C)OC(=O)[C@@H](O)[C@H](O)CCCCCCCC[C@@H](O)[C@H](O)C(=O)OC(C)C (racemic) [G4]
- gelation of sevoflurane at lower gelator concentration ([1]; 0.1 wt % gelator): without success
- Gel state of anaesthetic: Desfluorane [1, 4]: Yes
- Gel state of anaesthetic: Isoflurane [1, 4]: No^†
- Gel state of anaesthetic: Sevoflurane [1, 4]: Good gels and Yes
- gel state of isoflurane ([1]; 1.5 wt % gelator): partially gelled
- gel state of isoflurane ([1]; 2, 3, and 5 wt % gelator): gels and stable isoflurane gels were obtained

Structure (SMILES): FC(F)OC(Cl)C(F)(F)F (stereo not shown) [isoflurane]
- MAC value of 1 (release level) [2]: 1.2 volume %

Structure (SMILES): FC(F)OC(F)(F)C(F)Cl (stereo not shown) [enflurane]
- MAC value of 1 (release level) [2]: 1.6 volume %

Structure (SMILES): FCOC(C(F)(F)F)C(F)(F)F [sevoflurane]
- MAC value of 1 (release level) [2]: 2 volume %
- time of drop to zero anaesthetic concentration ([3]; 3 ml sevoflurane, 2 L min^−1): 15 to 16 min
- plateau sevoflurane concentration in carrier gas ([3]; 3 ml sevoflurane, 2 L min^−1 carrier gas): ~13%
- anaesthetic concentration in the carrier gas outflow stream ([3]; first 10 minutes, 3 ml sevoflurane, 2 L min^−1 through headspace): 13-15%

Structure (SMILES): FC(F)(F)C(Cl)Br (stereo not shown) [halothane]
- MAC value of 1 (release level) [2]: 0.76 volume %

Structure (SMILES): FC(F)OC(F)C(F)(F)F (stereo not shown) [desflurane]
- MAC value of 1 (release level) [2]: 6 volume %

Structure (SMILES): FC(C(F)C(F)(F)C(F)(F)F)C(F)(F)F (stereo not shown) [HPFP, 2H, 3H-perfluoropentane]
- Time to 0% sevoflurane/s ([3]; 2 l min−1 N2 Over sample, 3 ml HPFP): 220 s
- sevoflurane % @ 30 s ([3]; 2 l min−1 N2 Over sample, 3 ml HPFP, monitored as sevoflurane): 1.6%
- Time to 0% sevoflurane/s ([3]; 2 l min−1 N2 through sample, 3 ml HPFP): <220 s
- Sevo % @ 30 s [3, 5]: 1.9%
- time to 0% Sevo/s [3, 5]: 135 s
- Sevo % @ 30 s ([3]; 2nd value column (equivalent formulation unclear)): 2.0%
- time to 0% Sevo/s ([3]; 2nd value column): 140 s
- Sevo % @ 30 s [3, 6]: 2.8%
- time to 0% Sevo/s [3, 6]: 335 s
- Sevo % @ 30 s ([3]; 4th value column (equivalent formulation unclear)): 2.9%
- time to 0% Sevo/s ([3]; 4th value column): 900 s
